According to ChEMBL document CHEMBL4382288, “Synthesis of 12-O-Mono- and Diglycosyl-oxystearates, a New Class of Agonists for the C-type Lectin Receptor Mincle” (ACS Med Chem Lett, 2019):
Calls of active or inactive are those of the source. The rule behind the calls is not given here.

How the values were obtained:
[1] = molecular target: T1, C-type lectin domain family 4 member E (Mus musculus) (UniProt Q9R0Q8); experiment: Agonist activity at mouse mincle coupled with FcRgamma expressed in 2B4-NFAT-GFP reporter cells at 3 nmol/well after 16 hrs by flow cytometric analysis; assay type: cell-based
T1 sequence (whole entry): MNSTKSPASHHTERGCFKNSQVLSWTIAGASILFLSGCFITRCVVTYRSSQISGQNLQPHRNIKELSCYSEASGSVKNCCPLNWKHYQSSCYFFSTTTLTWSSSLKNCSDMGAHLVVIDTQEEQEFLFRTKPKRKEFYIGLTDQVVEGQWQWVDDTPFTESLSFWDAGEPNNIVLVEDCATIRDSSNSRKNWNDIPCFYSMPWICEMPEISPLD

[2] = molecular target: T2, C-type lectin domain family 4 member E (Homo sapiens) (UniProt Q9ULY5); experiment: Agonist activity at human mincle coupled with FcRgamma expressed in 2B4-NFAT-GFP reporter cells at 3 nmol/well after 16 hrs by flow cytometric analysis; assay type: cell-based
T2 sequence (whole entry): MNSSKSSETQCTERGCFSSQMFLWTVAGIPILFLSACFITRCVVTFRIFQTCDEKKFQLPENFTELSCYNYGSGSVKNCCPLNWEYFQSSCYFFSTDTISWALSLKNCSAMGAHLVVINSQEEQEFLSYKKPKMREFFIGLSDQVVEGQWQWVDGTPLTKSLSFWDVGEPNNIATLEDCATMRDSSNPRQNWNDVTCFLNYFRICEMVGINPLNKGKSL

Row | Activity [1] | Activity [2] | Structure (SMILES)
1 | Active | Active | CCCCCCC(CCCCCCCCCCC(=O)OC)O[C@H]1O[C@H](CO)[C@@H](O)[C@H](O)[C@@H]1O[C@@H]1O[C@H](CO)[C@@H](O)[C@H](O)[C@@H]1O (some centres undefined)
2 | Active | Active | CCCCCCC(CCCCCCCCCCC(=O)OC)O[C@H]1O[C@H](CO)[C@@H](O)[C@H](O)[C@@H]1O[C@H]1O[C@H](CO)[C@@H](O)[C@H](O)[C@@H]1O (some centres undefined)
3 | inactive | inactive | CCCCCCC(CCCCCCCCCCC(=O)OC)O[C@@H]1O[C@H](CO)[C@@H](O[C@@H]2O[C@H](CO)[C@@H](O)[C@H](O)[C@H]2O)[C@H](O)[C@H]1O (some centres undefined)
4 | Active | Active | CCCCCCC(CCCCCCCCCCC(=O)OC)O[C@@H]1O[C@H](CO)[C@@H](O)[C@H](O)[C@@H]1O[C@@H]1O[C@H](CO)[C@@H](O)[C@H](O)[C@@H]1O (some centres undefined)
5 | Active | Active | CCCCCCC(CCCCCCCCCCC(=O)OC)O[C@@H]1O[C@H](CO)[C@@H](O)[C@H](O)[C@@H]1O[C@H]1O[C@H](CO)[C@@H](O)[C@H](O)[C@@H]1O (some centres undefined)
6 | Active | – | CCCCCCC(CCCCCCCCCCC(=O)OC)O[C@@H]1O[C@H](CO[C@@H]2O[C@H](CO)[C@@H](O)[C@H](O)[C@H]2O)[C@@H](O)[C@H](O)[C@H]1O (some centres undefined)
7 | inactive | inactive | CCCCCCC(CCCCCCCCCCC(=O)OC)O[C@@H]1O[C@H](CO)[C@@H](O[C@H]2O[C@H](CO)[C@@H](O)[C@H](O)[C@H]2O)[C@H](O)[C@H]1O (some centres undefined)

The next lines start with the molecule.

Row | Structure (SMILES) | Activity [1] | Activity [2]
8 | CCCCCCC(CCCCCCCCCCC(=O)OC)O[C@H]1O[C@H](CO)[C@H](O)[C@H](O)[C@H]1O (some centres undefined) | inactive | inactive
9 | CCCCCCC(CCCCCCCCCCC(=O)OC)O[C@H]1O[C@H](CO)[C@@H](O)[C@H](O)[C@@H]1O (some centres undefined) | inactive | inactive
10 | CCCCCCC(CCCCCCCCCCC(=O)OC)O[C@H]1O[C@H](CO)[C@@H](O)[C@H](O)[C@H]1O (some centres undefined) | inactive | inactive
11 | CCCCCCC(CCCCCCCCCCC(=O)OC)O[C@@H]1O[C@H](CO)[C@@H](O)[C@H](O)[C@@H]1O (some centres undefined) | inactive | inactive
12 | CCCCCCC(CCCCCCCCCCC(=O)OC)O[C@@H]1O[C@H](CO)[C@H](O)[C@H](O)[C@H]1O (some centres undefined) | inactive | inactive
13 | CCCCCCC(CCCCCCCCCCC(=O)OC)O[C@@H]1O[C@H](CO[C@H]2O[C@H](CO)[C@H](O)[C@H](O)[C@H]2O)[C@@H](O)[C@H](O)[C@H]1O (some centres undefined) | inactive | inactive
14 | CCCCCCC(CCCCCCCCCCC(=O)OC)O[C@@H]1O[C@H](CO[C@H]2O[C@H](CO)[C@@H](O)[C@H](O)[C@H]2O)[C@@H](O)[C@H](O)[C@H]1O (some centres undefined) | inactive | inactive
15 | CCCCCCC(CCCCCCCCCCC(=O)OC)O[C@@H]1O[C@H](CO)[C@@H](O)[C@H](O)[C@H]1O (some centres undefined) | inactive | inactive
